Patent publication EP4722231A1, “BIOSYNTHESIS METHOD FOR BROAD-SPECTRUM ANTIVIRAL POLYPEPTIDE” (Shanxi Jinbo Bio-Pharmaceutical Co., Ltd., priority 2023, dated 2025)

Tests used:
[1] = system: BA.2.86 pseudovirus; conditions: read-out: Inhibitory activity, IC50 (nM) BA.2.86, Caco2 target cells
[2] = system: XBB.1.5 pseudovirus; conditions: read-out: Inhibitory activity, IC50 (nM) XBB.1.5, Caco2 target cells
[3] = system: EG.5 pseudovirus; conditions: read-out: Inhibitory activity, IC50 (nM) EG.5, Caco2 target cells
[4] = system: BA.2.75 pseudovirus; conditions: read-out: Inhibitory activity, IC50 (nM) BA.2.75, Caco2 target cells
[5] = system: BA.2 pseudovirus; conditions: read-out: Inhibitory activity, IC50 (nM) BA.2, Caco2 target cells

`CC[C@H](C)[C@H](NC(=O)[C@H](C)NC(=O)[C@H](CCC(=O)O)NC(=O)[C@H](CCC(=O)O)NC(=O)[C@H](CC(C)C)NC(=O)[C@H](CCCCN)NC(=O)[C@H](CCCCN)NC(=O)[C@H](CCSC)NC(=O)[C@H](CCC(=O)O)NC(=O)[C@H](Cc1ccc(O)cc1)NC(=O)[C@H](CCC(=O)O)NC(=O)[C@H](CC(C)C)NC(=O)[C@H](CC(=O)O)NC(=O)[C@H](CC(C)C)NC(=O)[C@H](Cc1ccccc1)NC(=O)[C@@H](NC(=O)[C@@H](NC(=O)[C@H](CC(N)=O)NC(=O)[C@@H](NC(=O)[C@H](CCC(N)=O)NC(=O)[C@H](CC(=O)O)NC(=O)[C@H](CC(C)C)NC(=O)[C@H](CO)NC(C)=O)[C@@H](C)CC)C(C)C)[C@@H](C)O)C(=O)N[C@@H](CCCCN)C(=O)N[C@@H](CCCCN)C(=O)N[C@@H](CC(C)C)C(=O)N[C@@H](CCC(=O)O)C(=O)N[C@@H](CCC(=O)O)C(=O)N[C@@H](CO)C(=O)N[C@@H](Cc1ccc(O)cc1)C(=O)N[C@H](C(=O)N[C@@H](CC(=O)O)C(=O)N[C@@H](CC(C)C)C(=O)N[C@@H](CCCCN)C(=O)N[C@@H](CCC(=O)O)C(=O)N[C@@H](CC(C)C)C(N)=O)[C@@H](C)CC` [EK1] gave an IC50 [1] of 392 nM, an IC50 [2] of 291 nM and an IC50 [3] of 401 nM. The IC50 [4] was 438 nM and the IC50 [5] was 228 nM.
